In the NIST ThermoML archive (doi:10.1016/j.jct.2012.11.014):

Test: xn = mol fraction of the nth substance listed
Conditions: 101 kPa, Liquid; for speed of sound: Frequency=2 MHz, Linear variable-path acoustic interferometer; for viscosity: Oscillating disk viscometry; for mass density: Vibrating tube method

CC(=O)[O-].C[NH+](C)C [trimethylammonium acetate] + C[S+](C)[O-]
Conditions	mass density [kg/m3]	speed of sound [m/s]	viscosity [mPa·s]
298.15 K, x1 = 0.0159	1094.86	1497	2.03
298.15 K, x1 = 0.0656	1093.33	1501	2.16
298.15 K, x1 = 0.1182	1091.46	1505	2.29
298.15 K, x1 = 0.1693	1089.27	1509	2.41
298.15 K, x1 = 0.2333	1086.77	1513	2.55
298.15 K, x1 = 0.2857	1084.45	1517	2.66
298.15 K, x1 = 0.3408	1081.92	1521	2.77
298.15 K, x1 = 0.3877	1079.63	1524	2.84
298.15 K, x1 = 0.4358	1077.39	1527	2.91
298.15 K, x1 = 0.5129	1073.63	1532	3
298.15 K, x1 = 0.5506	1071.66	1534	3.03
298.15 K, x1 = 0.5959	1069.68	1536	3.05
298.15 K, x1 = 0.6852	1065.62	1540	3.08
298.15 K, x1 = 0.7487	1062.84	1542	3.06
298.15 K, x1 = 0.8156	1060.15	1543	3.01
298.15 K, x1 = 0.8651	1058.27	1544	2.97
298.15 K, x1 = 0.9231	1056.26	1544	2.89
298.15 K, x1 = 0.961	1055.02	1544	2.84
298.15 K, x1 = 1	1053.85	1544	2.76
303.15 K, x1 = 0.0159	1092.06	1473	1.85
303.15 K, x1 = 0.0656	1090.58	1477	1.99
303.15 K, x1 = 0.1182	1088.73	1480	2.12
303.15 K, x1 = 0.1693	1086.54	1484	2.23
303.15 K, x1 = 0.2333	1083.95	1488	2.37
303.15 K, x1 = 0.2857	1081.41	1492	2.47
303.15 K, x1 = 0.3408	1078.78	1495	2.56
303.15 K, x1 = 0.3877	1076.45	1498	2.63
303.15 K, x1 = 0.4358	1074.03	1501	2.7
303.15 K, x1 = 0.5129	1070.25	1505	2.78
303.15 K, x1 = 0.5506	1068.52	1507	2.81
303.15 K, x1 = 0.5959	1066.19	1509	2.83
303.15 K, x1 = 0.6852	1062.02	1512	2.82
303.15 K, x1 = 0.7487	1059.21	1513	2.8
303.15 K, x1 = 0.8156	1056.44	1514	2.75
303.15 K, x1 = 0.8651	1054.43	1515	2.65
303.15 K, x1 = 0.9231	1052.36	1515	2.55
303.15 K, x1 = 0.961	1051.09	1515	2.48
303.15 K, x1 = 1	1049.87	1514	2.37
308.15 K, x1 = 0.0159	1085.87	1461	1.71
308.15 K, x1 = 0.0656	1084.72	1465	1.84
308.15 K, x1 = 0.1182	1083.28	1469	1.96
308.15 K, x1 = 0.1693	1081.2	1473	2.07
308.15 K, x1 = 0.2333	1078.93	1479	2.2
308.15 K, x1 = 0.2857	1076.51	1483	2.29
308.15 K, x1 = 0.3408	1073.96	1487	2.39
308.15 K, x1 = 0.3877	1071.75	1491	2.45
308.15 K, x1 = 0.4358	1069.43	1494	2.51
308.15 K, x1 = 0.5129	1065.68	1499	2.57
308.15 K, x1 = 0.5506	1063.92	1501	2.59
308.15 K, x1 = 0.5959	1061.71	1504	2.6
308.15 K, x1 = 0.6852	1057.63	1507	2.59
308.15 K, x1 = 0.7487	1054.92	1509	2.55
308.15 K, x1 = 0.8156	1052.23	1511	2.49
308.15 K, x1 = 0.8651	1050.25	1511	2.39
308.15 K, x1 = 0.9231	1048.26	1511	2.27
308.15 K, x1 = 0.961	1046.98	1510	2.19
308.15 K, x1 = 1	1045.81	1508	2.06
313.15 K, x1 = 0.0159	1081.32	1443	1.61
313.15 K, x1 = 0.0656	1080.52	1447	1.73
313.15 K, x1 = 0.1182	1079.21	1452	1.85
313.15 K, x1 = 0.1693	1077.1	1457	1.96
313.15 K, x1 = 0.2333	1074.98	1463	2.08
313.15 K, x1 = 0.2857	1072.77	1468	2.16
313.15 K, x1 = 0.3408	1070.09	1472	2.26
313.15 K, x1 = 0.3877	1067.96	1476	2.31
313.15 K, x1 = 0.4358	1065.48	1481	2.36
313.15 K, x1 = 0.5129	1061.68	1486	2.41
313.15 K, x1 = 0.5506	1060.02	1489	2.43
313.15 K, x1 = 0.5959	1057.67	1491	2.44
313.15 K, x1 = 0.6852	1053.56	1495	2.41
313.15 K, x1 = 0.7487	1050.78	1497	2.37
313.15 K, x1 = 0.8156	1048.06	1497	2.29
313.15 K, x1 = 0.8651	1045.97	1496	2.18
313.15 K, x1 = 0.9231	1044.14	1495	2.06
313.15 K, x1 = 0.961	1042.88	1493	1.97
313.15 K, x1 = 1	1041.7	1490	1.83
